These results are taken from ChEMBL document CHEMBL1134932, “Bridged bicyclic vasopressin receptor antagonists with V(2)-selective or dual V(1a)/V(2) activity” (Bioorg Med Chem Lett, 2002).

For data set [1], the target named is T1, Vasopressin V1a receptor (Homo sapiens, UniProt P37288). The experiment in a line: Inhibition of [3H]Arg-vasopressin binding to recombinant human vasopressin V1a receptor at 0.1 uM.
Target sequence in this assay (P37288 whole entry, looked up): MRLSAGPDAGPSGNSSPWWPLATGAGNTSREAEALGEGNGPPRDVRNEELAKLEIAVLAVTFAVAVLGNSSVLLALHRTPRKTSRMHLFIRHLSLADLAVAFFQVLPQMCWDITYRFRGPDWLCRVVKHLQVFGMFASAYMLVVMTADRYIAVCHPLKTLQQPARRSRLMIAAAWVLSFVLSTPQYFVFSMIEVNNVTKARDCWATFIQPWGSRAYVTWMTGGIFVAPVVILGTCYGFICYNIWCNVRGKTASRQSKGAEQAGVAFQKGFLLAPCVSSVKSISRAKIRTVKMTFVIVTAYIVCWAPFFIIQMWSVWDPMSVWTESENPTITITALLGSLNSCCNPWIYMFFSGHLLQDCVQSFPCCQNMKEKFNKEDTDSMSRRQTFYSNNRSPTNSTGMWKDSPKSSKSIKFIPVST
For data set [2], the target named is T2, Vasopressin V2 receptor (Homo sapiens, UniProt P30518). The experiment in a line: Inhibition of [3H]Arg-vasopressin binding to recombinant human vasopressin V2 receptor.
Data set [3] concerns the target T1, Vasopressin V1a receptor. The experiment in a line: Inhibition of [3H]Arg-vasopressin binding to recombinant human vasopressin V1a receptor.
Target sequence in this assay (P37288 whole entry): as the sequence (P37288 whole entry, looked up) above
Data set [4] in a line: Half life tested in mature male rat at a dose of 30 mg/kg. The note with it: in vivo. On the set-up: dose 30 mg/kg. The format is ADME, organism-based.
Data set [5] deals with Rattus norvegicus. The experiment in a line: The Urine osmolality in 10 male Sprague-Dawley rats after 4 hrs at a dose of 1 mg/kg by oral route. It counts as functional.
Data set [6] has as its target T1, Vasopressin V1a receptor. In words: Inhibition of AVP mediated activation of human vasopressin V1a receptor expressed in HEK293 cells. The format is cell-based.
Target sequence in this assay (P37288 whole entry): as the sequence (P37288 whole entry, looked up) above
The subject of data set [7] is Rattus norvegicus. The experiment in a line: Effective dose for reversal of AVP-Induced Hypertension in pentobarbital-anesthetized male Long-Evans rats. It counts as functional.
The target in data set [8] is T2, Vasopressin V2 receptor. The experiment in a line: Inhibition of AVP mediated activation of human vasopressin V2 receptor expressed in HEK293 cells. The format is cell-based.
Data set [9] concerns Rattus norvegicus. In words: The Urine osmolality in 9 male Sprague-Dawley rats after 4 hrs at a dose of 0.3 mg/kg by oral route. It counts as functional.
Data set [10] is described as follows: Oral bioavailability in rat (mature male) (dose 30 mg/kg). It counts as ADME, organism-based. The note with it: in vivo.
The subject of data set [11] is Rattus norvegicus. In words: The diuretic effect in 9 male Sprague-Dawley rats after 4 hrs at a dose of 0.3 mg/kg by oral route. It counts as functional, Urine.
Data set [12] relates to Rattus norvegicus. In words: The diuretic effect in 10 male Sprague-Dawley rats after 4 hrs at a dose of 3 mg/kg by oral route. The format is functional, Urine.
For data set [13], the system named is Rattus norvegicus. In words: The Urine osmolality in 10 male Sprague-Dawley rats after 4 hrs at a dose of 3 mg/kg by oral route. It counts as functional.
The subject of data set [14] is Rattus norvegicus. The experiment in a line: The Urine osmolality in 10 male Sprague-Dawley rats after 4 hrs at a dose of 10 mg/kg by oral route. The format is functional.
Data set [15] relates to Rattus norvegicus. In words: The clearance rate in mature male rat at a intravenous dose of 3 mg/kg. The note with it: in vivo. It counts as ADME, organism-based. Further details: dose 3 mg/kg, route intravenous.
Data set [16] concerns Rattus norvegicus. The experiment in a line: The diuretic effect in 10 male Sprague-Dawley rats after 4 hrs at a dose of 1 mg/kg by oral route. It counts as functional, Urine.
Data set [17] in a line: The maximum plasma levels for the compounds were determined by LC-MS. Particulars: rat. The format is ADME, organism-based.
In data set [18] the test system is Rattus norvegicus. The experiment in a line: The diuretic effect in 10 male Sprague-Dawley rats after 4 hrs at a dose of 10 mg/kg by oral route. The format is functional, Urine.
For data set [19], the system named is Rattus norvegicus. In words: Excretion of sodium at a dose of 10 mg/kg in male Sprague-Dawley rats. It counts as functional.
Data set [20] concerns Rattus norvegicus. The experiment in a line: Excretion of sodium at a dose of 3 mg/kg in male Sprague-Dawley rats. It counts as functional.
For data set [21], the system named is Rattus norvegicus. In words: Excretion of potassium at a dose of 10 mg/kg in male Sprague-Dawley rats. The format is functional.
Data set [22] deals with Rattus norvegicus. The experiment in a line: Excretion of potassium at a dose of 1 mg/kg in male Sprague-Dawley rats. The format is functional.
Data set [23] deals with Rattus norvegicus. In words: Excretion of potassium at a dose of 3 mg/kg in male Sprague-Dawley rats. The format is functional.
For data set [24], the system named is Rattus norvegicus. In words: Excretion of sodium at a dose of 1 mg/kg in male Sprague-Dawley rats. The format is functional.
The subject of data set [25] is Rattus norvegicus. In words: Excretion of Creatinine at a dose of 1 mg/kg in male Sprague-Dawley rats. The format is functional.
In data set [26] the target is Cytochrome P450 2C9 (Homo sapiens, UniProt P11712). The experiment in a line: Inhibition of cytochrome P450 2C9. The format is ADME.
In data set [27] the test system is Rattus norvegicus. The experiment in a line: Excretion of Creatinine at a dose of 3 mg/kg in male Sprague-Dawley rats. It counts as functional.
For data set [28], the system named is Rattus norvegicus. The experiment in a line: Excretion of Creatinine at a dose of 10 mg/kg in male Sprague-Dawley rats. The format is functional.

T2 sequence (P30518 whole entry): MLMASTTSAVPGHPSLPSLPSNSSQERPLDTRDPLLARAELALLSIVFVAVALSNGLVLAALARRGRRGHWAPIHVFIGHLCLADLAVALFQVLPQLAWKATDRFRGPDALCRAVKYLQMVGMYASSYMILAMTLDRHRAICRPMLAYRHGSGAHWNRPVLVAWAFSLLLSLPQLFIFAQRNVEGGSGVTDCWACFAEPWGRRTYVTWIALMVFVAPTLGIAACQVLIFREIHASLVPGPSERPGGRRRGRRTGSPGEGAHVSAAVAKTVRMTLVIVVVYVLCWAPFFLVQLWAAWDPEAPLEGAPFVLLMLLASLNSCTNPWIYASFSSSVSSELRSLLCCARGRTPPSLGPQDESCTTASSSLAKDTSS
Chain of Cytochrome P450 2C9 (P11712 whole entry): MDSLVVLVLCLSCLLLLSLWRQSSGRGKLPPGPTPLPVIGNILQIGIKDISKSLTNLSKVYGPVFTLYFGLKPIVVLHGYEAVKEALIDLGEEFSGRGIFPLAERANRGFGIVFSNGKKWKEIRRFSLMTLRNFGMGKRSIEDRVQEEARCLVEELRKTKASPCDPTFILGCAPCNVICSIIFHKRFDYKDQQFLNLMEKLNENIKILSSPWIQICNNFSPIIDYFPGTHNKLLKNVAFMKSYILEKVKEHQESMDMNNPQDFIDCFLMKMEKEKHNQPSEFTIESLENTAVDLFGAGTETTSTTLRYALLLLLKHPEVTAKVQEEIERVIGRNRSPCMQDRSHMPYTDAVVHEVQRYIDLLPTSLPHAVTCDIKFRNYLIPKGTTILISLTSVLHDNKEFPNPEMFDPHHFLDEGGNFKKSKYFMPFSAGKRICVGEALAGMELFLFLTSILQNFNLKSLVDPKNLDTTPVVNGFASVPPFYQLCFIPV

Consider `Cc1cc(F)cc(C(=O)Nc2ccc(C(=O)N3C[C@@H]4C5CCC(CC5)N4Cc4ccccc43)c(Cl)c2)c1`, for which the inhibition in data set [1] was determined as 15%. The IC50 in data set [2] was determined as 19 nM.
As to `Cc1ccc(-c2ccccc2C(=O)Nc2ccc(C(=O)N3C[C@@H]4C5CCC(C5)N4Cc4cc(Cl)ccc43)c(Cl)c2)cc1` (some centres undefined), the IC50 was determined as 35 nM in data set [3] and 30 nM in [2].
Regarding `O=C(Nc1ccc(C(=O)N2CC3C4CCC(CC4)N3Cc3ccccc32)cc1)c1ccccc1-c1ccccc1` (centres undefined), in [3], the IC50 was approximately 100 nM.
Turning to `O=C(Nc1ccc(C(=O)N2CC3C4CCC(CC4)N3Cc3ccccc32)c(Cl)c1)c1ccccc1-c1ccccc1` (centres undefined), the inhibition in data set [1] was determined as 30%. Moreover, the IC50 in [2] was found to be 4 nM.
On to `O=C(Nc1ccc(C(=O)N2C[C@@H]3C4CCC(C4)N3Cc3ccccc32)c(Cl)c1)c1ccccc1-c1ccccc1` (some centres undefined), for which the half-life in data set [4] is 300 min. Further, the Urine osmolality was 299 mOsmol kg-1 in [5], 444 mOsmol kg-1 in [9], 180 mOsmol kg-1 in [13] and 138 mOsmol kg-1 in [14]. The Ki in [6] was found to be 130 nM; in [8], 9 nM. For the same compound, the ED50 in data set [7] is 0.217 mg/kg. This compound showed a bioavailability in data set [10] of 14%. Also, the Urine volume came to 2.5 mL in data set [11], 15.1 mL in data set [12], 6 mL in data set [16] and 29.9 mL in data set [18]. The same compound showed a Clearance in data set [15] of 1.2 mg/kg/µM/h. This compound also registered a maximum concentration (Cmax) in data set [17] of 650 nM.
As for `O=C(Nc1ccc(C(=O)N2C[C@@H]3C4CCC(C4)N3Cc3cc(Cl)ccc32)cc1)c1ccccc1C(F)(F)F` (some centres undefined), the Ki was found to be 40 nM in data set [6] and 9 nM in data set [8]. Also, the ED50 in data set [7] amounted to 0.38 mg/kg. Moreover, the IC50 in data set [3] worked out at 4 nM; in data set [2] it was 7 nM.
For the compound `O=C(Nc1ccc(C(=O)N2C[C@@H]3C4CCC(CC4)N3Cc3cc(Cl)ccc32)cc1)c1ccccc1Cl`, the Ki is 620 nM in [6] and 520 nM in [8]. The 50% inhibitory concentration (IC50) in data set [3] came out at 35 nM; in data set [2], 13 nM.
As to `Cc1ccc(-c2ccccc2C(=O)Nc2ccc(C(=O)N3C[C@@H]4C5CCC(C5)N4Cc4cc(Cl)ccc43)cc2)cc1` (some centres undefined), the Excretion in data set [19] came to 0.52 m equiv 4hr-1; in data set [20], 0.16 m equiv 4hr-1; in data set [21] it was 0.64 m equiv 4hr-1; in [22], 0.3 m equiv 4hr-1; in [23], 0.34 m equiv 4hr-1; in data set [24] it was 0.07 m equiv 4hr-1. The Excretion came out at 31.4 mg/dL in data set [25], 16.2 mg/dL in data set [27] and 7.7 mg/dL in [28]. Moreover, the half-life in [4] is 150 min. For the same compound, the Urine osmolality in data set [5] is 387 mOsmol kg-1; in data set [13], 226 mOsmol kg-1; in data set [14], 159 mOsmol kg-1. Moreover, the Ki in [6] was 23 nM; in data set [8] it was 13 nM. In [7], the ED50 was determined as 0.0074 mg/kg. Besides, the bioavailability in data set [10] is 7%. In addition, the Urine volume in [12] stood at 5.8 mL; in data set [16] it was 2.9 mL; in data set [18] it was 17.8 mL. This compound had an IC50 in [26] of 7.4 µM. This compound displayed a Clearance in [15] of 2.1 mg/kg/µM/h. Further, the Cmax in data set [17] is 320 nM.
Take `Cc1ccc(F)cc1C(=O)Nc1ccc(C(=O)N2Cc3cccn3Cc3ccccc32)c(Cl)c1` [LIXIVAPTAN]: in data set [8], the Ki amounted to 90 nM. Besides, the IC50 in data set [3] stood at 150 nM; in data set [2], 5 nM.
For `O=C(Nc1ccc(C(=O)N2C[C@@H]3C4CCC(C4)N3Cc3cc(Cl)ccc32)cc1)c1ccccc1Cl` (some centres undefined), the Ki was found to be 130 nM in [6] and 32 nM in data set [8]. The IC50 in data set [3] was 5 nM; in data set [2] it was 10 nM.
Consider `O=C(Nc1ccc(C(=O)N2C[C@H]3C4CCC(C4)N3Cc3ccccc32)c(Cl)c1)c1ccccc1-c1ccccc1` (some centres undefined), for which the half-life in [4] was 150 min. The Urine osmolality turned out to be 303 mOsmol kg-1 in data set [5], 408 mOsmol kg-1 in data set [9], 238 mOsmol kg-1 in [13] and 172 mOsmol kg-1 in data set [14]. For the same compound, the Ki in [8] worked out at 30 nM. This compound showed a bioavailability in data set [10] of 10%. The Urine volume in [11] was determined as 1.4 mL; in [12], 9.4 mL; in data set [16], 3.4 mL; in data set [18] it was 19.5 mL. Further, the Clearance in [15] was determined as 3.3 mg/kg/µM/h. Besides, in data set [1], the inhibition was determined as 7%. Also, the highest level in [17] (Cmax) was 230 nM.
Turning to `O=C(Nc1ccc(C(=O)N2C[C@@H]3C4CCC(C4)N3Cc3cc(Cl)ccc32)cc1)c1ccccc1F` (some centres undefined), the Ki in [6] amounted to 2600 nM; in [8], 180 nM. In addition, the IC50 in data set [3] was found to be 68 nM; in data set [2], 26 nM.
